Laboratory results taken from US11806314B2, “PDE5 inhibitor powder formulations and methods relating thereto” (Respira Therapeutics, Inc., priority 2013, dated 2023).
Structures can show the parent of a compound that is named as a salt. Each block holds one molecule with its values, some of them ahead of it.

How the values were obtained:
Format in all cases: physicochemical
[1] = Aerosol performance, Next Generation Impactor (NGI) with powder deaggregator and RS01 capsule piercing mechanism; settings: pure drug (100% API)
Description: There are several inertia sampling apparatuses that can be used to assess aerosol performance of dry powder formulations. (<601> Aerosols, Nasal Sprays, Metered-Dose Inhalers, and Dry Powder Inhalers Monograph, in USP 29-NF 24 The United States Pharmacopoeia and The National Formulary: The Official Compendia of Standards. 2006, The United States Pharmacopeial Convention, Inc.: Rockville, Md. p. 2617-2636 (“USP<601>”).) These apparatus classify aerosol particles on the basis of the particles' aerodynamic diameter. Each stage of the impactor includes a single or series of nozzles with specific cutoff size. Particles are entrained into the apparatus. Those having sufficient inertia will impact on that particular stage collection plate, while smaller particles with insufficient inertia will remain entrained in the airstream and pass to the next stage where the process is repeated. The aerodynamic size distribution of API can be assessed by collecting the deposited API mass and the ED %, RF %, FPF % and MMAD (μm) can be calculated from the API deposition pattern. The emitted dose fraction (ED (%); Eq. 4) is determined as the percentage powder mass emitted from the initial dosing chamber/capsule relative to the total dose in capsules (nominal dose) (TD). Emitted dose (ED) includes the sum of the API mass […] deposited on the device stages. Fine particle fraction (FPF (%); Eq. 5) is expressed as a percentage of fine particle dose (FPD) below a certain aerodynamic cutoff size to ED. Respirable fraction (RF (%); Eq. 6) is defined as the percentage of FPD to total dose (TD).
Formulation aerosol performance tests were carried out using a powder deaggregator modified from that described in U.S. Patent Publication Nos. 2013/0340754 and 2013/0340747 combined with an off-the-shelf RS01 dry powder inhaler capsule piercing mechanism (Plastiape, IT) feeding method. […] The experiments were conducted at an airflow rate that gave a system pressure drop of 2 kPa (about 40 L/min, 4 L inhalation volume duration: 5.5 sec) or 4 kPa (about 60 L/min, 4 L inhalation volume duration: 3.9 sec).
Packaging: The blends were packaged into size 3 HPMC capsules. Nominal dose amounts of 3 mg were prepared for each formulation; 10 mg nominal doses were also prepared for pure drug VarBase and Var(HCl)2·xH2O formulations.
Methods: Two inertial sampling systems were used to assess aerosol performance: (1) a Next Generation Impactor® (“NGI”) (Copley Scientific, Shoreview, Minn.), and (2) a Twin Stage Liquid Impinge (“TSLI”) (Copley Scientific, Shoreview, Minn.). Aerosol performance of the VarHCl·xH2O formulation was assessed using the TSLI device, while the other formulations were all assessed using the NGI device. The NGI experiments were carried out using methods in general agreement with the USP<601>, and the TSLI experiments were carried using methods in general agreement with the British Pharmacopoeia, 2007, Vol. IV, Appendix XIIF. A291 Aerodynamic assessment of fine particles, fine particle dose and particle size distribution. The NGI experiments were run at a controlled airflow rate that gave a pressure drop of either 2 or 4 kPa across the device. Specifically, at Q=61.4 L/min with a delay time of 3.9 sec; and at Q=43.4 L/min with a delay time of 5.5 sec. Before the aerosol testing, the NGI collection plates were coated with suitable coating. Mass median aerodynamic diameter (MMAD) of aerosol particles distribution was determined based on a log-probability distribution (API particle size versus API deposition percentage) obtained from the NGI data. The TSLI experiments were run at Q=60 L/min, 4 sec to achieve ΔP≈4 kPa, with a cutoff size of 6.4 μm.

[2] = Particle size analysis of micronized APIs by laser diffraction; settings: micronized (jet-milled), dispersed in mineral spirit
Protocol: Var(HCl)2·xH2O, VarBase, and VarHCl·3H2O were purchased and then micronized using a commercial dry jet-miller. The jet milling was achieved using typical jet milling conditions and a single milling process. As shown in Example 5, micronization leads to partial dehydration of VarHCl·3H2O. As such, following micronization and absent rehydration, the compound is designated as VarHCl·xH2O.
The APIs were dispersed in mineral spirit, and particle size analysis was performed by laser diffraction using a Microtrac×100 Particle Size Analyzer. Particle size span was calculated as
[formula] where Dv0.1, Dv0.5 and Dv0.9 are 10%, 50% and 90% of the volume size distributed below the respective values.

[3] = Dynamic vapor sorption (DVS) moisture sorption and desorption; settings: 20° C.; for moisture sorption and desorption behavior: micronized, 0-80% P/Po
Protocol: DVS Analysis: No DVS results of these APIs have been previously reported. Moisture sorption and desorption behavior was assessed using a DVS-Advantage 1 (Surface Measurement Systems, Allentown, Pa.). Experimental parameters: sample % P/Po in a range of 0-80; 5% P/Po increment, equilibrium criteria, both sorption and desorption. Experiments conducted at 20° C.

[4] = Intrinsic stability testing (acid, base, oxidative degradation in solution) by HPLC; settings: acidic, basic and oxidative conditions per ICH Guidance
Protocol: Method: VarHCl·3H2O, HPLC grade water, 36.5% HCl, NaOH pellets, 6% H2O2 were all purchased, and 1N HCl and 1N NaOH were prepared in house. Intrinsic stability testing was performed according to International Conference on Harmonization (ICH) Guidance for Industry Q1A(R2) Stability Testing of New Drug Substances and Products (November 2003, Rev. 2). Briefly, the compound was tested for acid hydrolysis (1N HCl) and base hydrolysis (1N NaOH) at r.t. for 48 hr and at 60° C. for 4 hr. Oxidation assessment (6% H2O2) was performed at r.t. for 48 hr. The stability of VarHCl·3H2O in solution was assessed using HPLC analysis as described above in Example 1, Section A.

[5] = 3 mg dose, dihydrochloride hydrate

- ED(%) [1, 5]: 71.4%
- FPF(ED)(%) [1, 5]: 63.6%
- MMAD [1, 5]: 1.37 μm
- RF(%) [1, 5]: 45.4%
SMILES: CCCc1nc(C)c2c(=O)[nH]c(-c3cc(S(=O)(=O)N4CCN(CC)CC4)ccc3OCC)nn12 [Var(HCl)2•xH2O (rehydrated), dihydrochloride hydrate]

- DV50 [2]: 1.557 μm
- Span [2]: 1.557
- moisture sorption and desorption behavior [3]: no hydration occurred
- ED(%) ([1]; 3 mg dose): 81.8%
- FPF(ED)(%) ([1]; 3 mg dose): 56.0%
- MMAD ([1]; 3 mg dose): 1.32 μm
- RF(%) ([1]; 3 mg dose): 45.8%
- ED(%) ([1]; 10 mg dose): 64.2%
- FPF(ED)(%) ([1]; 10 mg dose): 37.2%
- MMAD ([1]; 10 mg dose): 1.51 μm
- RF(%) ([1]; 10 mg dose): 23.9%
SMILES: CCCc1nc(C)c2c(=O)[nH]c(-c3cc(S(=O)(=O)N4CCN(CC)CC4)ccc3OCC)nn12 [VarBase, 2-[2-ethoxy-5-(4-ethylpiperazin-1-yl)sulfonylphenyl]-5-methyl-7-propyl-1H-imidazo[5,1-i][1,2,4]triazin-4-one]

- relative humidity below which water loss occurred ([3]; desorption phase): lower than 15%
- humidity range in which the trihydrate form is stable / maintained ([3]; desorption phase, hydrochloride trihydrate): 10-80 % RH
- relative humidity up to which integrity is maintained (not reaching deliquescence) ([3]; sorption phase): up to 80 % RH
SMILES: CCCc1nc(C)c2c(=O)[nH]c(-c3cc(S(=O)(=O)N4CCN(CC)CC4)ccc3OCC)nn12 [VarHCl·3H2O, vardenafil hydrochloride trihydrate]
- extent of degradation [4]: significant in basic and oxidative conditions

- moisture sorption and desorption behavior ([3]; hydrochloride): highly hygroscopic
- relative humidity at which a first water molecule bound to form a monohydrate ([3]; sorption phase): 5%
SMILES: CCCc1nc(C)c2c(=O)[nH]c(-c3cc(S(=O)(=O)N4CCN(CC)CC4)ccc3OCC)nn12 [VarHCl, vardenafil hydrochloride]
